Our source for the EC50 values is patent EP4806910A1, “TRI-AGONIST COMPOUND” (priority 2023, dated 2025).

The structures appear in SMILES notation. Like-named read-outs stand apart in the source and are kept apart here.

What all share (format): cell-based
The target of one experiment is T1, GLP-1R (Homo sapiens, UniProt P43220).
T1 construct: expressed in transfected cells; host or cells: CHO-K1
Briefly: GLP-1 activity test (cAMP, chemiluminescence). The procedure: (§1) Upon stimulation by a specific agonist, GLP-1R activates the intracellular adenylate cyclase signaling pathway, resulting in an increase in cAMP levels and ultimately leading to insulin production and secretion. A cell line stably transfected with GLP-1R was stimulated with test compounds, thereby rapidly increasing intracellular cAMP levels. The relative luminescence units (RLU) of cells stimulated at various concentrations were measured by a chemiluminescence method, and the EC50 value of the agonist was calculated accordingly. This activity test method is currently a commonly used method for evaluating GLP-1 receptor agonist activity both domestically and internationally. A CHO-K1 cell line stably expressing GLP-1R was used. The stable cells were stimulated with agonists at different concentrations, and the relative luminescence units after stimulation at each concentration were measured to calculate the EC50 value of the agonist.

The next experiment concerns the target T2, GIPR (Homo sapiens, UniProt P48546).
T2 construct: expressed in transfected cells; host or cells: CHO-K1
T2 sequence (P48546 22-466): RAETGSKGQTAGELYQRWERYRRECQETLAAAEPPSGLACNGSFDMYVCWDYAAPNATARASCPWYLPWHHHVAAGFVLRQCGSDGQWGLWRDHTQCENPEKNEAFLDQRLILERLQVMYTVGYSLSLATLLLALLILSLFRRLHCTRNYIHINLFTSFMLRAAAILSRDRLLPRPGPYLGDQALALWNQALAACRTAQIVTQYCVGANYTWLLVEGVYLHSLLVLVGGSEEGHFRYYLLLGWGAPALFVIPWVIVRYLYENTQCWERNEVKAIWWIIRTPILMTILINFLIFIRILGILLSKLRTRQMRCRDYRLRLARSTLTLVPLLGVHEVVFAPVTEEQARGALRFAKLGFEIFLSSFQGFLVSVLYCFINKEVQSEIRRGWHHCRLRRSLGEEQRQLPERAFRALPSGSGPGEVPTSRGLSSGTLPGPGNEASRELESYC
The experiment is described as follows: GIP activity test (cAMP, chemiluminescence). The procedure:
as §1, with “agonist, GIPR” for “agonist, GLP-1R”, “with GIPR” for “with GLP-1R”, “activity assay” for “activity test”, “evaluating GIP” for “evaluating GLP-1”, “expressing GIPR” for “expressing GLP-1R”

A further experiment deals with T3, GCG-R (Homo sapiens, UniProt P47871).
T3 construct: expressed in transfected cells; host or cells: CHO-K1
T3 sequence (P47871 26-477, species assumed): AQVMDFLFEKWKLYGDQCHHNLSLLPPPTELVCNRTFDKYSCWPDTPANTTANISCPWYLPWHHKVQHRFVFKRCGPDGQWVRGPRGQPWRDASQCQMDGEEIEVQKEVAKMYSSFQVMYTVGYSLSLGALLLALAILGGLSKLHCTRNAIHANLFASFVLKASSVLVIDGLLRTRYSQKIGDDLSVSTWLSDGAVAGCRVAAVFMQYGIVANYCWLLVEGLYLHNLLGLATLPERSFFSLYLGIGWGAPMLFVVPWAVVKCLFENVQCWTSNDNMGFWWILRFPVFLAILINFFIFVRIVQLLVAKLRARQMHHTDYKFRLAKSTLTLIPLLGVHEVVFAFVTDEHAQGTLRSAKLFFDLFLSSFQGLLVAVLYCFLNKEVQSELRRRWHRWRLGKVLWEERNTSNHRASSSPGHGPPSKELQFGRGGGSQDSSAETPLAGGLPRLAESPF
The experiment is described as follows: GCG activity test (cAMP, chemiluminescence). The procedure:
Upon stimulation by a specific agonist, GCG-R activates the intracellular adenylate cyclase signaling pathway, resulting in an increase in cAMP levels and ultimately leading to insulin production and secretion. A cell line stably transfected with GCG-R was stimulated with test compounds, thereby rapidly increasing intracellular cAMP levels. The relative luminescence units (RLU) of cells stimulated at various concentrations were measured by a chemiluminescence method, and the EC50 value of the agonist was calculated accordingly. This activity assay method is currently a commonly used method for evaluating GCG receptor agonist activity both domestically and internationally.
A CHO-K1 cell line stably expressing GCG-R was used. The stable cells were stimulated with agonists at different concentrations, and the relative luminescence units after stimulation at each concentration were measured to calculate the EC50 value of the agonist.

T1 sequence (P43220 24-463, species assumed): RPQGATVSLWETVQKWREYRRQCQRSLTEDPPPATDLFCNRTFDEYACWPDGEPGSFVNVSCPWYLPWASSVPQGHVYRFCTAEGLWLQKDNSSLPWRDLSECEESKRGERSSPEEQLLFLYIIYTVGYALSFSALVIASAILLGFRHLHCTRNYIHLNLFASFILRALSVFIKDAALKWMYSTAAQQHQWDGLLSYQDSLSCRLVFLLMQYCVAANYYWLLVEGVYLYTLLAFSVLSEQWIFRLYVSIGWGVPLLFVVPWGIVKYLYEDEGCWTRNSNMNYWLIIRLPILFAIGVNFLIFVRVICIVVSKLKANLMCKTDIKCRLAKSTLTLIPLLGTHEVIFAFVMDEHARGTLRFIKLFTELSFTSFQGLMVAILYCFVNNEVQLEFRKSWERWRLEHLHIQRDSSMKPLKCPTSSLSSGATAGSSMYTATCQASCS

On to `CC[C@H](C)[C@H](NC(=O)[C@H](Cc1ccccc1)NC(=O)[C@H](C)NC(=O)C(C)(C)NC(=O)[C@H](CCC(N)=O)NC(=O)[C@H](C)NC(=O)[C@H](CCCCNC(=O)COCCOCCNC(=O)COCCOCCNC(=O)CC[C@H](NC(=O)CCCCCCCCCCCCCCCCCCC(=O)O)C(=O)O)NC(=O)[C@H](CCCCN)NC(=O)[C@H](CC(=O)O)NC(=O)[C@H](CC(C)C)NC(=O)C(C)(CC(C)C)NC(=O)[C@@H](NC(=O)[C@H](CO)NC(=O)[C@H](Cc1ccc(O)cc1)NC(=O)[C@H](CC(=O)O)NC(=O)[C@H](CO)NC(=O)[C@@H](NC(=O)C(C)(Cc1ccccc1F)NC(=O)[C@@H](NC(=O)CNC(=O)[C@H](CCC(N)=O)NC(=O)C(C)(C)NC(=O)[C@@H](N)Cc1ccc(O)cc1)[C@@H](C)O)[C@@H](C)O)[C@@H](C)CC)C(=O)N[C@@H](CCC(=O)O)C(=O)N[C@@H](Cc1ccc(O)cc1)C(=O)N[C@@H](CC(C)C)C(=O)N[C@@H](CC(C)C)C(=O)N[C@@H](CCC(=O)O)C(=O)NCCCCC(=O)N1CCC[C@H]1C(=O)N[C@@H](CO)C(=O)N[C@@H](CO)C(=O)NCC(=O)N[C@@H](C)C(=O)N1CCC[C@H]1C(=O)N1CCC[C@H]1C(=O)N1CCC[C@H]1C(=O)N[C@@H](CO)C(N)=O` (stereo partly drawn) [Compound 11], for which the EC50 (in general, the concentration that produces a half-maximal response) was determined as 0.0487 nM at GLP-1R, 0.0253 nM at GIPR and 0.174 nM on GCG-R.
The corresponding values for `CC[C@H](C)[C@H](NC(=O)[C@H](Cc1ccccc1)NC(=O)[C@H](C)NC(=O)C(C)(C)NC(=O)[C@H](CCC(N)=O)NC(=O)[C@H](C)NC(=O)[C@H](CCCCNC(=O)COCCOCCNC(=O)CC[C@H](NC(=O)CCCCCCCCCCCCCCCCCCC(=O)O)C(=O)O)NC(=O)[C@H](CCCCN)NC(=O)[C@H](CC(=O)O)NC(=O)[C@H](CC(C)C)NC(=O)C(C)(CC(C)C)NC(=O)[C@@H](NC(=O)[C@H](CO)NC(=O)[C@H](Cc1ccc(O)cc1)NC(=O)[C@H](CC(=O)O)NC(=O)[C@H](CO)NC(=O)[C@@H](NC(=O)C(C)(Cc1ccccc1F)NC(=O)[C@@H](NC(=O)CNC(=O)[C@H](CCC(N)=O)NC(=O)C(C)(C)NC(=O)[C@@H](N)Cc1ccc(O)cc1)[C@@H](C)O)[C@@H](C)O)[C@@H](C)CC)C(=O)N[C@@H](CCC(=O)O)C(=O)N[C@@H](Cc1ccc(O)cc1)C(=O)N[C@@H](CC(C)C)C(=O)N[C@@H](CC(C)C)C(=O)N[C@@H](CCC(=O)O)C(=O)NCCCCC(=O)N1CCC[C@H]1C(=O)N[C@@H](CO)C(=O)N[C@@H](CO)C(=O)NCC(=O)N[C@@H](C)C(=O)N1CCC[C@H]1C(=O)N1CCC[C@H]1C(=O)N1CCC[C@H]1C(=O)N[C@@H](CO)C(N)=O` (stereo partly drawn) [Compound 5] are 0.0434 nM, 0.0236 nM and 0.159 nM.
In the case of `CC[C@H](C)[C@H](NC(=O)[C@H](Cc1ccccc1)NC(=O)[C@H](C)NC(=O)C(C)(C)NC(=O)[C@H](CCC(N)=O)NC(=O)[C@H](C)NC(=O)[C@H](CCCCNC(=O)COCCOCCNC(=O)CCCC[C@H](NC(=O)CCCCCCCCCCCCCCCCCCC(=O)O)C(=O)O)NC(=O)[C@H](CCCCN)NC(=O)[C@H](CC(=O)O)NC(=O)[C@H](CC(C)C)NC(=O)C(C)(CC(C)C)NC(=O)[C@@H](NC(=O)[C@H](CO)NC(=O)[C@H](Cc1ccc(O)cc1)NC(=O)[C@H](CC(=O)O)NC(=O)[C@H](CO)NC(=O)[C@@H](NC(=O)C(C)(Cc1ccccc1)NC(=O)[C@@H](NC(=O)CNC(=O)[C@H](CCC(N)=O)NC(=O)C(C)(C)NC(=O)[C@@H](N)Cc1ccc(O)cc1)[C@@H](C)O)[C@@H](C)O)[C@@H](C)CC)C(=O)N[C@@H](CCC(=O)O)C(=O)N[C@@H](Cc1ccc(O)cc1)C(=O)N[C@@H](CC(C)C)C(=O)N[C@@H](CC(C)C)C(=O)N[C@@H](CCC(=O)O)C(=O)NCCCCC(=O)N1CCC[C@H]1C(=O)N[C@@H](CO)C(=O)N[C@@H](CO)C(=O)NCC(=O)N[C@@H](C)C(=O)N1CCC[C@H]1C(=O)N1CCC[C@H]1C(=O)N1CCC[C@H]1C(=O)N[C@@H](CO)C(N)=O` (stereo partly drawn) [Compound 3], the EC50 at GLP-1R was determined as 0.0452 nM; on GIPR, 0.0267 nM; at GCG-R it was 0.283 nM.
For `CC[C@H](C)[C@H](NC(=O)[C@H](Cc1ccccc1)NC(=O)[C@H](C)NC(=O)C(C)(C)NC(=O)[C@H](CCC(N)=O)NC(=O)[C@H](C)NC(=O)[C@H](CCCCNC(=O)COCCOCCNC(=O)CCCCC[C@H](NC(=O)CCCCCCCCCCCCCCCCCCC(=O)O)C(=O)O)NC(=O)[C@H](CCCCN)NC(=O)[C@H](CC(=O)O)NC(=O)[C@H](CC(C)C)NC(=O)C(C)(CC(C)C)NC(=O)[C@@H](NC(=O)[C@H](CO)NC(=O)[C@H](Cc1ccc(O)cc1)NC(=O)[C@H](CC(=O)O)NC(=O)[C@H](CO)NC(=O)[C@@H](NC(=O)C(C)(Cc1ccccc1F)NC(=O)[C@@H](NC(=O)CNC(=O)[C@H](CCC(N)=O)NC(=O)C(C)(C)NC(=O)[C@@H](N)Cc1ccc(O)cc1)[C@@H](C)O)[C@@H](C)O)[C@@H](C)CC)C(=O)N[C@@H](CCC(=O)O)C(=O)N[C@@H](Cc1ccc(O)cc1)C(=O)N[C@@H](CC(C)C)C(=O)N[C@@H](CC(C)C)C(=O)N[C@@H](CCC(=O)O)C(=O)NCCCCC(=O)N1CCC[C@H]1C(=O)N[C@@H](CO)C(=O)N[C@@H](CO)C(=O)NCC(=O)N[C@@H](C)C(=O)N1CCC[C@H]1C(=O)N1CCC[C@H]1C(=O)N1CCC[C@H]1C(=O)N[C@@H](CO)C(N)=O` (stereo partly drawn) [Compound 8], the half-maximal effective concentration (EC50) at GLP-1R came to 0.0524 nM; at GIPR it was 0.0329 nM; on GCG-R it was 0.179 nM.
With `CC[C@H](C)[C@H](NC(=O)[C@H](Cc1ccccc1)NC(=O)[C@H](C)NC(=O)C(C)(C)NC(=O)[C@H](CCC(N)=O)NC(=O)[C@H](C)NC(=O)[C@H](CCCCNC(=O)COCCOCCNC(=O)CC[C@H](NC(=O)CCCCCCCCCCCCCCCCCCC(=O)O)C(=O)O)NC(=O)[C@H](CCCCN)NC(=O)[C@H](CC(=O)O)NC(=O)[C@H](CC(C)C)NC(=O)[C@](C)(CC(C)C)NC(=O)[C@@H](NC(=O)[C@H](CO)NC(=O)[C@H](Cc1ccc(O)cc1)NC(=O)[C@H](CC(=O)O)NC(=O)[C@H](CO)NC(=O)[C@@H](NC(=O)[C@H](Cc1ccccc1)NC(=O)[C@@H](NC(=O)CNC(=O)[C@H](CCC(N)=O)NC(=O)C(C)(C)NC(=O)[C@@H](N)Cc1ccc(O)cc1)[C@@H](C)O)[C@@H](C)O)[C@@H](C)CC)C(=O)N[C@@H](CCC(=O)O)C(=O)N[C@@H](Cc1ccc(O)cc1)C(=O)N[C@@H](CC(C)C)C(=O)N[C@@H](CC(C)C)C(=O)N[C@@H](CCC(=O)O)C(=O)NCC(=O)NCC(=O)N1CCC[C@H]1C(=O)N[C@@H](CO)C(=O)N[C@@H](CO)C(=O)NCC(=O)N[C@@H](C)C(=O)N1CCC[C@H]1C(=O)N1CCC[C@H]1C(=O)N1CCC[C@H]1C(=O)N[C@@H](CO)C(N)=O` [retatrutide, Retatrutide, reference compound], the EC50 at GLP-1R (CHO-K1 cell line stably expressing GLP-1R, cAMP, relative luminescence units, read-out: GLP-1 [EC50(pmol)]) was 0.046 nM; at GIPR (CHO-K1 cell line stably expressing GIPR, cAMP, relative luminescence units, read-out: GIP [EC50(pmol)]), 0.0342 nM; on GCG-R (CHO-K1 cell line stably expressing GCG-R, cAMP, relative luminescence units, read-out: GCG [EC50(pmol)]), 0.523 nM.
